{
  "source": "paper PMC9268515",
  "about": "“UGT1A1 and UGT1A9 Are Responsible for Phase II Metabolism of Tectorigenin and Irigenin In Vitro” (Molecules, 2022)",
  "type_in_all_cases": "in vitro ADME",
  "key": {"[1]": {"molecular_target": "T1, UGT1A4 (Homo sapiens, UniProt P22310)", "T1 construct": "purchased BD Biosciences (Woburn, MA, USA)", "T1 sequence (P22310 29-534)": "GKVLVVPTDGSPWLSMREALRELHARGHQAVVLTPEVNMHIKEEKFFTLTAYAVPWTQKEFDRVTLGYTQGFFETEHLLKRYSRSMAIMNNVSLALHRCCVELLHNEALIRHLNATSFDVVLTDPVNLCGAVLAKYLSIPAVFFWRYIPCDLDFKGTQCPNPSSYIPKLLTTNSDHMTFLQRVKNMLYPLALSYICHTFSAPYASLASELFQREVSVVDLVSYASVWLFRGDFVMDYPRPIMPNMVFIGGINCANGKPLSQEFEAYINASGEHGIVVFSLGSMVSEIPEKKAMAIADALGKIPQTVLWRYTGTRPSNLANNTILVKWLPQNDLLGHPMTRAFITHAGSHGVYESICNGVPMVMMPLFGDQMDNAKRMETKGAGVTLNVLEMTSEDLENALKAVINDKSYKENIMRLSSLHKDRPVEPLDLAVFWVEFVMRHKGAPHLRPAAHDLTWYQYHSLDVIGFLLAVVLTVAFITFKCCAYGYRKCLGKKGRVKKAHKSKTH", "assay": "Recombinant UGT reaction screening, UGT1A4", "description": "(§1) UGT reaction screening of tectorigenin and irigenin was conducted using nine commercially available human UGTs (UGT1A1/1A3/1A4/1A6/1A9/2B4/2B7/2B15/2B17). Furthermore, we studied the enzymatic kinetic characteristics of tectorigenin and irigenin using UGT1A1 and UGT1A9. Six concentrations of tectorigenin and irigenin (1, 3, 10, 30, 100, and 300 μM) were incubated in triplicate in order to obtain the enzyme kinetic characteristics of tectorigenin and irigenin glucuronide."}, "[2]": {"molecular_target": "T2, UGT1A6 (Homo sapiens, UniProt P19224)", "T2 construct": "purchased BD Biosciences (Woburn, MA, USA)", "T2 sequence (P19224 27-532)": "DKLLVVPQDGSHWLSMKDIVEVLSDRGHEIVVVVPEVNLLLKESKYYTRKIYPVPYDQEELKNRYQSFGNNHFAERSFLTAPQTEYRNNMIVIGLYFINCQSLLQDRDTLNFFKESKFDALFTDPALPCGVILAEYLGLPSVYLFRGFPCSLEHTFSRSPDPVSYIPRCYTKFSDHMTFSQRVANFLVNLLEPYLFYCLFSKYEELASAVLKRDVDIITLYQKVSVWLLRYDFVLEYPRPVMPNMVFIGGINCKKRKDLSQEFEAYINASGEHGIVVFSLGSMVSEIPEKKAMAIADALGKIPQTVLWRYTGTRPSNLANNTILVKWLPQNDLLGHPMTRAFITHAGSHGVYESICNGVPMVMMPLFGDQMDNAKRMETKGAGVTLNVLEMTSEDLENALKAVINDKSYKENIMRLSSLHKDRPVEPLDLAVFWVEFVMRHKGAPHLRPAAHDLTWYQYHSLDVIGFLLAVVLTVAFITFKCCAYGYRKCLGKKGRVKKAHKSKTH", "assay": "Recombinant UGT reaction screening, UGT1A6", "description": "as §1"}, "[3]": {"molecular_target": "T3, UGT2B4 (Homo sapiens, UniProt P06133)", "T3 construct": "purchased BD Biosciences (Woburn, MA, USA)", "T3 sequence (P06133 24-528)": "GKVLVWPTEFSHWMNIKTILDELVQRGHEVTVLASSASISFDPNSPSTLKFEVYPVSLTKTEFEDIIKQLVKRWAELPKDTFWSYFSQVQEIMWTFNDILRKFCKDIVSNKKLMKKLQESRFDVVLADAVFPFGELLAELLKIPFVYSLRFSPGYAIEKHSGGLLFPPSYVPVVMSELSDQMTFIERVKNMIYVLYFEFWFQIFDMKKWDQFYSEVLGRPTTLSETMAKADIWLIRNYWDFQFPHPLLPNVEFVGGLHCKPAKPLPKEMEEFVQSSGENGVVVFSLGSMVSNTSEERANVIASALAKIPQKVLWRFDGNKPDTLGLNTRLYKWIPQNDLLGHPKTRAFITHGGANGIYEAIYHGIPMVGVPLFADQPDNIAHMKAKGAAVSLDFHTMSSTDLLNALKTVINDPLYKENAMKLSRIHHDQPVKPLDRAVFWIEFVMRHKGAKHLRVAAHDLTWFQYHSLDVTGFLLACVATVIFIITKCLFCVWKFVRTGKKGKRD", "assay": "Recombinant UGT reaction screening, UGT2B4", "description": "as §1"}, "[4]": {"molecular_target": "T4, UGT2B7 (Homo sapiens, UniProt P16662)", "T4 construct": "purchased BD Biosciences (Woburn, MA, USA)", "T4 sequence (P16662 24-529)": "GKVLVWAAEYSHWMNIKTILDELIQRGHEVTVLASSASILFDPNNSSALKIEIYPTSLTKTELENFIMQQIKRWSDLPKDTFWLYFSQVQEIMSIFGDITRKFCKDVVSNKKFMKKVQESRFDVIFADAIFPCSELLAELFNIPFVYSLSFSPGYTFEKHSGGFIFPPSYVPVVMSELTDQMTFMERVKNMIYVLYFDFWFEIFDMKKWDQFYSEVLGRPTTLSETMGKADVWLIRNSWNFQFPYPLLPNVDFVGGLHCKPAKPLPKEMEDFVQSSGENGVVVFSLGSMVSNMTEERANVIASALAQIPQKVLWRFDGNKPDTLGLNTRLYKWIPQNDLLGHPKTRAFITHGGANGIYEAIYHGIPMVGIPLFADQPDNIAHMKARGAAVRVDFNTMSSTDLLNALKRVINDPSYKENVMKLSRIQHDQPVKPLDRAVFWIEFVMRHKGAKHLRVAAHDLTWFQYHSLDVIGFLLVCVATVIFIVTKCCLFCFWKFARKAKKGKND", "assay": "Recombinant UGT reaction screening, UGT2B7", "description": "as §1"}, "[5]": {"molecular_target": "T5, UGT1A3 (Homo sapiens, UniProt P35503)", "T5 construct": "purchased BD Biosciences (Woburn, MA, USA)", "T5 sequence (P35503 29-534)": "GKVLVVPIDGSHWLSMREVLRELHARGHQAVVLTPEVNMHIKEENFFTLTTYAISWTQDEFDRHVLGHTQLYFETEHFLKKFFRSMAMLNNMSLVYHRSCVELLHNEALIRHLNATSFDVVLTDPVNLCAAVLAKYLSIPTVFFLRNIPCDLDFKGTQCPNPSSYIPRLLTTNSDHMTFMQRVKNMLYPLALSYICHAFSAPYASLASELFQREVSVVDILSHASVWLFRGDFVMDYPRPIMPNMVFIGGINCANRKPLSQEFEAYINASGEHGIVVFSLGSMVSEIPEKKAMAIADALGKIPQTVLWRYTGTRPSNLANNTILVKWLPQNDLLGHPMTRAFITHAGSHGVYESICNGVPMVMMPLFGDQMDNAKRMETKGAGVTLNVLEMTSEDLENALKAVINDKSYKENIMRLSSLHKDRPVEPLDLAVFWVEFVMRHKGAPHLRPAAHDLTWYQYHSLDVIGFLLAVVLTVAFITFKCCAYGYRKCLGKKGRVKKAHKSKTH", "assay": "Recombinant UGT reaction screening, UGT1A3", "description": "as §1"}},
  "data": [
    {"smiles": "COc1c(O)cc2occ(-c3ccc(O)cc3)c(=O)c2c1O", "note": "[Tectorigenin, 5,7,4′-trihydroxyl-6-methoxyl isoflavone]", "values": [
      {"measurement": "Activity in glucuronidation of tectorigenin", "setting": "[1]", "value": "some activity"},
      {"measurement": "Activity in glucuronidation of tectorigenin", "setting": "[2]", "value": "some activity"},
      {"measurement": "Activity in glucuronidation of tectorigenin", "setting": "[3]", "value": "none"},
      {"measurement": "Activity in glucuronidation of tectorigenin", "setting": "[4]", "value": "some activity"},
      {"measurement": "Activity in glucuronidation of tectorigenin", "setting": "[5]", "value": "some activity"}
    ]}
  ]
}
